In ChEMBL document CHEMBL1201862, “PubChem BioAssay data set” (2004):
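Where inhibition never reached the appropriate level, the endpoint shown equals the highest concentration tested. Otherwise, values were interpolated linearly from a five-concentration, 48-hour dose response in 96-well plates. GI50 marks 50% less growth.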 Active and inactive are the calls of the source. Cut-off read from the data, not from the text of the source: active = GI50 up to about 1.1 µM and inactive = higher.

Legend:
Assay in all cases: NCI anticancer screen, dose series, 48 h
[1] = tested on: OVCAR-4
[2] = tested on: SF-295
[3] = tested on: RXF 393
[4] = tested on: UACC-257
[5] = tested on: TK-10
[6] = tested on: NCI-H522
[7] = tested on: MOLT-4
[8] = tested on: EKVX
[9] = tested on: MCF7
[10] = tested on: 786-0
[11] = tested on: SK-MEL-2
[12] = tested on: IGROV-1
[13] = tested on: BT-549
[14] = tested on: HT-29
[15] = tested on: SF-539
[16] = tested on: SR
[17] = tested on: OVCAR-8
[18] = tested on: SK-MEL-5
[19] = tested on: M14
[20] = tested on: SNB-19

SMILES	GI50 [1]	GI50 [2]	GI50 [3]	GI50 [4]	GI50 [5]	GI50 [6]	GI50 [7]	GI50 [8]	GI50 [9]	GI50 [10]	GI50 [11]	GI50 [12]	GI50 [13]	GI50 [14]	GI50 [15]	GI50 [16]	GI50 [17]	GI50 [18]	GI50 [19]	GI50 [20]
CN(C)c1ccc(-c2ccc(N(C)C)c3n[se]nc23)c2n[se]nc12	> 100 µM (inactive)	> 100 µM (inactive)	> 100 µM (inactive)	> 100 µM (inactive)	> 100 µM (inactive)	> 100 µM (inactive)	> 100 µM (inactive)	> 100 µM (inactive)	> 100 µM (inactive)	> 100 µM (inactive)	> 100 µM (inactive)	> 100 µM (inactive)	> 100 µM (inactive)	> 100 µM (inactive)	> 100 µM (inactive)	> 100 µM (inactive)	> 100 µM (inactive)	> 100 µM (inactive)		
O=C(CC(NC(=O)OCc1ccccc1)C(=O)NC1Cc2ccccc2C1=O)OCc1ccccc1 (stereo not drawn)		> 100 µM (inactive)	> 100 µM (inactive)	86.5 µM (inactive)	> 100 µM (inactive)	> 100 µM (inactive)	> 100 µM (inactive)	> 100 µM (inactive)	> 100 µM (inactive)	> 100 µM (inactive)	> 100 µM (inactive)	> 100 µM (inactive)	> 100 µM (inactive)	> 100 µM (inactive)	> 100 µM (inactive)	> 100 µM (inactive)	> 100 µM (inactive)	> 100 µM (inactive)	> 100 µM (inactive)	> 100 µM (inactive)
COc1ccc2nc3c([N+](=O)[O-])ccc4c3c(c2c1)N=CN4CCN(C)C	9.02 µM (inactive)	5.57 µM (inactive)		3.96 µM (inactive)	6.34 µM (inactive)	2.03 µM (inactive)	2.04 µM (inactive)	4.65 µM (inactive)	3.3 µM (inactive)	3.61 µM (inactive)	9.23 µM (inactive)	2.47 µM (inactive)	12 µM (inactive)	2.52 µM (inactive)	3.28 µM (inactive)	0.168 µM (active)	2.82 µM (inactive)	2.53 µM (inactive)	4.8 µM (inactive)	6.85 µM (inactive)
O=C1c2ccccc2C(=O)N1n1c(Cc2ccc(Cl)cc2)n[nH]c1=O	> 100 µM (inactive)	> 100 µM (inactive)		> 100 µM (inactive)	> 100 µM (inactive)		> 100 µM (inactive)	> 100 µM (inactive)	> 100 µM (inactive)	> 100 µM (inactive)	> 100 µM (inactive)	> 100 µM (inactive)	> 100 µM (inactive)	> 100 µM (inactive)	> 100 µM (inactive)	> 100 µM (inactive)	> 100 µM (inactive)	> 100 µM (inactive)	> 100 µM (inactive)	> 100 µM (inactive)
CCN(CC)c1ccc(C2NC(=O)c3ccccc3N2)cc1 (stereo not drawn)	> 100 µM (inactive)	3.01 µM (inactive)	7.52 µM (inactive)	> 100 µM (inactive)	> 100 µM (inactive)	14.8 µM (inactive)	3.55 µM (inactive)	5.24 µM (inactive)	3.73 µM (inactive)	2.99 µM (inactive)		5.24 µM (inactive)	> 100 µM (inactive)	2.31 µM (inactive)	2.71 µM (inactive)	0.557 µM (active)	3.62 µM (inactive)	1.15 µM (inactive)	2.93 µM (inactive)	17.1 µM (inactive)
O=C(O)C/N=C(\C(=N\CC(=O)O)c1ccccc1)c1ccccc1	> 100 µM (inactive)	> 100 µM (inactive)	> 100 µM (inactive)	> 100 µM (inactive)	> 100 µM (inactive)	> 100 µM (inactive)	> 100 µM (inactive)	> 100 µM (inactive)	> 100 µM (inactive)	> 100 µM (inactive)	> 100 µM (inactive)		> 100 µM (inactive)			> 100 µM (inactive)	> 100 µM (inactive)		> 100 µM (inactive)	> 100 µM (inactive)
CCOCCOCCOCc1nc(C#N)c(N)o1	> 100 µM (inactive)	> 100 µM (inactive)	> 100 µM (inactive)	> 100 µM (inactive)	> 100 µM (inactive)	93.1 µM (inactive)	> 100 µM (inactive)	> 100 µM (inactive)	> 100 µM (inactive)	> 100 µM (inactive)	> 100 µM (inactive)	> 100 µM (inactive)	> 100 µM (inactive)	> 100 µM (inactive)	> 100 µM (inactive)	> 100 µM (inactive)	> 100 µM (inactive)	> 100 µM (inactive)	> 100 µM (inactive)	
O=c1[nH]nc(-c2ccccc2)n1/N=C/c1ccncc1	> 100 µM (inactive)	> 100 µM (inactive)	62.5 µM (inactive)	> 100 µM (inactive)	> 100 µM (inactive)	> 100 µM (inactive)	> 100 µM (inactive)	> 100 µM (inactive)	> 100 µM (inactive)	> 100 µM (inactive)		> 100 µM (inactive)	32.6 µM (inactive)	> 100 µM (inactive)	61.8 µM (inactive)	74.1 µM (inactive)	> 100 µM (inactive)	44.7 µM (inactive)	> 100 µM (inactive)	> 100 µM (inactive)
CC(C)[C@@H]1CC[C@@H](C)C[C@H]1OC(=O)c1c2n(c3ccccc13)C[C@H]1OC(C)(C)O[C@@H]21	20.9 µM (inactive)	6.46 µM (inactive)	13.7 µM (inactive)	6.95 µM (inactive)	18.5 µM (inactive)		3.87 µM (inactive)	6.81 µM (inactive)	14.1 µM (inactive)	16.5 µM (inactive)	> 100 µM (inactive)	13 µM (inactive)	61.8 µM (inactive)	8.2 µM (inactive)		3.23 µM (inactive)	20.9 µM (inactive)	5.5 µM (inactive)	22.9 µM (inactive)	
COc1ccc(/C(C)=N/NC(=O)c2ccncc2)c(OC)c1	> 10 µM (inactive)			> 10 µM (inactive)	> 10 µM (inactive)		> 10 µM (inactive)	> 10 µM (inactive)	> 10 µM (inactive)	> 10 µM (inactive)		> 10 µM (inactive)	> 10 µM (inactive)		> 10 µM (inactive)	> 10 µM (inactive)	> 10 µM (inactive)	> 10 µM (inactive)	> 10 µM (inactive)	
N#CCOc1ccc(/C=C/C(=O)c2ccc(Cl)cc2)cc1	34.9 µM (inactive)	21.4 µM (inactive)	17.5 µM (inactive)	32 µM (inactive)	28.5 µM (inactive)	> 10 µM (inactive)	19.6 µM (inactive)	39.6 µM (inactive)	11.4 µM (inactive)	22.6 µM (inactive)		22 µM (inactive)	3.62 µM (inactive)	50.6 µM (inactive)	19.2 µM (inactive)	37.5 µM (inactive)	32.1 µM (inactive)	20.9 µM (inactive)	37 µM (inactive)	22.8 µM (inactive)
CC(C)(C)OC(=O)NC(CCCCNC(=O)OCc1ccccc1)C(=O)NC(CCCCNC(=O)OCc1ccccc1)C(=O)ON1C(=O)CCC1=O (stereo not drawn)			> 100 µM (inactive)	> 100 µM (inactive)	> 100 µM (inactive)		> 100 µM (inactive)	> 100 µM (inactive)	> 100 µM (inactive)	> 100 µM (inactive)	> 100 µM (inactive)	> 100 µM (inactive)	> 100 µM (inactive)	> 100 µM (inactive)		> 100 µM (inactive)	> 100 µM (inactive)	> 100 µM (inactive)	> 100 µM (inactive)	> 100 µM (inactive)
Cc1c(O)c(=O)ccn1CCc1c[nH]c2ccccc12		3.93 µM (inactive)		3.92 µM (inactive)	4.81 µM (inactive)		8.2 µM (inactive)	6.31 µM (inactive)	4.89 µM (inactive)	2.55 µM (inactive)			20.7 µM (inactive)	3.75 µM (inactive)	19.7 µM (inactive)	5.73 µM (inactive)	8.39 µM (inactive)	6.52 µM (inactive)	7.48 µM (inactive)	6.81 µM (inactive)
CCOC(=O)c1[nH]c(Br)c(-c2ccc(OC)c(OC)c2)c1Br	4.82 µM (inactive)	0.00975 µM (active)	0.00906 µM (active)	0.00386 µM (active)	14 µM (inactive)	0.00991 µM (active)	0.0262 µM (active)	4.12 µM (inactive)	0.245 µM (active)	0.0334 µM (active)	0.0336 µM (active)	0.0552 µM (active)	0.054 µM (active)			0.0214 µM (active)	0.0423 µM (active)	0.0412 µM (active)	0.028 µM (active)	0.181 µM (active)
C/C(Nc1ccc(Cl)cc1Cl)=C1/CCOC1=O	> 100 µM (inactive)	26.6 µM (inactive)	13.5 µM (inactive)	> 100 µM (inactive)	56.4 µM (inactive)	86.5 µM (inactive)	87.3 µM (inactive)	10.4 µM (inactive)	> 100 µM (inactive)	40.4 µM (inactive)		> 100 µM (inactive)	24.1 µM (inactive)	> 100 µM (inactive)	25.7 µM (inactive)	> 100 µM (inactive)	48.3 µM (inactive)	> 100 µM (inactive)		26.2 µM (inactive)
OCCNc1ncnc2c1ncn2C1OC(CO)C(O)C1O (stereo not drawn)	> 100 µM (inactive)	> 100 µM (inactive)	> 100 µM (inactive)	> 100 µM (inactive)	71.3 µM (inactive)	47.3 µM (inactive)	0.224 µM (active)	> 100 µM (inactive)	39.4 µM (inactive)	> 100 µM (inactive)	> 100 µM (inactive)	> 100 µM (inactive)	> 100 µM (inactive)	> 100 µM (inactive)	> 100 µM (inactive)		35 µM (inactive)	> 100 µM (inactive)	> 100 µM (inactive)	> 100 µM (inactive)
